This note sets out measurements from US20020106384A1, “Cosmetic compositions and methods for lightening the skin” (priority 1999, published 2002).

The subject of the test is B16-F1 mouse melanoma cells. Put plainly: B16 F1 melanoma cell based assay for melanogenesis (melanin content in media). The conditions noted are these: for Melanin (% Control) Alone: 72 hours, absorbance at 530 nm, lower = more inhibition. The protocol: The ability to inhibit melanin production was assessed using B16 cells, a mouse melanoma cell line.
B16-F1 mouse melanoma cells (obtained from American Type Culture Collection, MD, USA) were maintained in 75 cm^2 culture flasks in RPMI 1640 medium supplemented with L-glutamine (4 mM) and 10% fetal bovine serum (FBS) at 37° C. in a water-saturated, 5% CO2 in air atmosphere. Sub-confluent B16 cells were seeded in 96 well microtiter plates at a density of 5×10^3 cells/well in 200 μl of DMEM containing 10% FBS and 1% penicillin/streptomycin without phenol red at 37° C. under 5% CO2. After 24 hours, the media was replaced with fresh DMEM media containing various compounds at designated concentrations. Cells were incubated for 72 hours at which time melanin was visible in the control well (dark color) where no testing compounds were added.
The amount of melanin produced for each well was quantified by assessing melanin released into the culture media. The pigment containing media from each well was transferred to a clean 96 well plate and the melanin content was quantified by reading the absorbance at 530 nm. Melanin content in each well was calculated as a percent of the control where cells were maintained in DMEM medium or solvent control.
Melanin content in the media was expressed as percent of control, therefore the lower the value is, the more inhibition resulted from the tested compounds.

Turning to `CC(O)C(=O)O` (racemic) [DL-lactic acid], the “inhibitory effects on melanin production” value (B16 cell assay, dose-dependent) is given as “strong inhibitory effects”. The “Melanin (% Control) Alone” value is recorded as 103.8 ± 20.5 % Control (co-active alone at 2 mM), 98 ± 19.3 % Control (co-active alone at 5 mM), 79 ± 16.8 % Control (co-active alone at 10 mM) and 33.5 ± 7.9 % Control (co-active alone at 15 mM).
For the compound `NC(=O)c1cccnc1` [Niacinamide], the “Melanin (% Control) Alone” value reads like this: (co-active alone at 2 mM) 94.8 ± 19 % Control; (co-active alone at 5 mM) 83.9 ± 16.7 % Control; (co-active alone at 10 mM) 66.1 ± 13 % Control; (co-active alone at 15 mM) 50.3 ± 10.2 % Control.
In the same order, the values of `N[C@@H](Cc1ccccc1)C(=O)O` [L-phenylalanine] are 84.9 ± 16.9 % Control, 48.3 ± 10 % Control, 10 ± 2.7 % Control and 49.7 ± 9.9 % Control.
